What was measured:
Assay type in all cases: in vivo
Set-up in all cases: key: 5=total damage to plant; 0=no damage to plant
[1] = tested on: Alopecurus myosuroides (ALOMY); test: Pre-emergence herbicidal activity, glasshouse pot test; conditions: sprayed one day after sowing, evaluated after 13 days
Protocol: (§1) Seeds of a variety of test species were sown in standard soil in pots: Triticum aestivium (TRZAW), Avena fatua (AVEFA), Alopecurus myosuroides (ALOMY), Echinochloa crus-galli (ECHCG), Lolium perenne (LOLPE), and Setaria faberi (SETFA). After cultivation for one day (pre-emergence) under controlled conditions in a glasshouse (at 24/16° C., day/night; 14 hours light; 65% humidity), the plants were sprayed with an aqueous spray solution derived from the formulation of the technical active ingredient in acetone/water (50:50) solution containing 0.5% Tween 20 (polyoxyethelyene sorbitan monolaurate, CAS RN 9005-64-5). The test plants were then grown in a glasshouse under controlled conditions (at 24/16° C., day/night; 14 hours light; 65% humidity) and watered twice daily. After 13 days, the test was evaluated (5=total damage to plant; 0=no damage to plant).

Avena fatua (AVEFA) [2] = test: as above; conditions: sprayed one day after sowing, evaluated after 13 days
Protocol: as §1

[3] = tested on: Echinochloa crus-galli (ECHCG); test: as above; conditions: sprayed one day after sowing, evaluated after 13 days
Protocol: as §1

Lolium perenne (LOLPE) [4] = test: as above; conditions: sprayed one day after sowing, evaluated after 13 days
Protocol: as §1

Setaria faberi (SETFA) [5] = test: as above; conditions: sprayed one day after sowing, evaluated after 13 days
Protocol: as §1

[6] = tested on: Triticum aestivium (TRZAW); test: as above; conditions: sprayed one day after sowing, evaluated after 13 days
Protocol: as §1

[7] = tested on: Alopecurus myosuroides (ALOMY); test: Post-emergence herbicidal activity, glasshouse pot test; conditions: sprayed after 8 days cultivation, evaluated after 13 days
Protocol: (§2) Seeds of a variety of test species were sown in standard soil in pots: Triticum aestivium (TRZAW), Avena fatua (AVEFA), Alopecurus myosuroides (ALOMY), Echinochloa crus-galli (ECHCG), Lolium perenne (LOLPE), and Setaria faberi (SETFA). After 8 days cultivation (post-emergence) under controlled conditions in a glasshouse (at 24/16° C., day/night; 14 hours light; 65% humidity), the plants were sprayed with an aqueous spray solution derived from the formulation of the technical active ingredient in acetone/water (50:50) solution containing 0.5% Tween 20 (polyoxyethelyene sorbitan monolaurate, CAS RN 9005-64-5). The test plants were then grown in a glasshouse under controlled conditions (at 24/16° C., day/night; 14 hours light; 65% humidity) and watered twice daily. After 13 days, the test was evaluated (5=total damage to plant; 0=no damage to plant).

Avena fatua (AVEFA) [8] = test: as above; conditions: sprayed after 8 days cultivation, evaluated after 13 days
Protocol: as §2

[9] = tested on: Echinochloa crus-galli (ECHCG); test: as above; conditions: sprayed after 8 days cultivation, evaluated after 13 days
Protocol: as §2

Lolium perenne (LOLPE) [10] = test: as above; conditions: sprayed after 8 days cultivation, evaluated after 13 days
Protocol: as §2

Setaria faberi (SETFA) [11] = test: as above; conditions: sprayed after 8 days cultivation, evaluated after 13 days
Protocol: as §2

[12] = tested on: Triticum aestivium (TRZAW); test: as above; conditions: sprayed after 8 days cultivation, evaluated after 13 days
Protocol: as §2

SMILES	Control of weed species after pre-emergence application, ALOMY (damage score 0-5) ([1]; Rate 1000 g/ha)	Control of weed species after pre-emergence application, AVEFA (damage score 0-5) (Avena fatua (AVEFA) [2]; Rate 1000 g/ha)	Control of weed species after pre-emergence application, ECHCG (damage score 0-5) ([3]; Rate 1000 g/ha)	Control of weed species after pre-emergence application, LOLPE (damage score 0-5) (Lolium perenne (LOLPE) [4]; Rate 1000 g/ha)	Control of weed species after pre-emergence application, SETFA (damage score 0-5) (Setaria faberi (SETFA) [5]; Rate 1000 g/ha)	Control of weed species after pre-emergence application, TRAZW (damage score 0-5) ([6]; Rate 1000 g/ha)	Control of weed species after post-emergence application, ALOMY (damage score 0-5) ([7]; Rate 1000 g/ha)	Control of weed species after post-emergence application, AVEFA (damage score 0-5) (Avena fatua (AVEFA) [8]; Rate 1000 g/ha)	Control of weed species after post-emergence application, ECHCG (damage score 0-5) ([9]; Rate 1000 g/ha)	Control of weed species after post-emergence application, LOLPE (damage score 0-5) (Lolium perenne (LOLPE) [10]; Rate 1000 g/ha)	Control of weed species after post-emergence application, SETFA (damage score 0-5) (Setaria faberi (SETFA) [11]; Rate 1000 g/ha)	Control of weed species after post-emergence application, TRAZW (damage score 0-5) ([12]; Rate 1000 g/ha)	other results
CC(C)(C)OC(=O)Nc1ncc(-c2cncnc2)nc1C(F)F [Compound H30]	0	0	3	1	4	1	1	3	4	2	4	1	
CC(C)(C)OC(=O)N(C(=O)OC(C)(C)C)c1ncc(-c2cncc(F)c2)nc1C#N [Compound H9]	0	1	2	1	5	0	0	3	3	1	5	0	
CC(C)(C)OC(=O)N(C(=O)OC(C)(C)C)c1ncc(-c2cncc(F)c2)nc1C(F)(F)F [Compound H5]	0	2	5	1	5	0	0	3	5	2	5	1	
Cc1nc(-c2cncnc2)cnc1NC(=O)OC(C)(C)C [Compound H23]	0	1	2	0	4	0	1	3	4	2	5	1	
CSc1cncc(-c2cnc(NC(=O)OC(C)(C)C)c(SC)n2)c1 [Compound H25]													Control of weed species after pre-emergence application, ALOMY (damage score 0-5) ([1]; Rate 250 g/ha): 0; Control of weed species after pre-emergence application, AVEFA (damage score 0-5) (Avena fatua (AVEFA) [2]; Rate 250 g/ha): 0; Control of weed species after pre-emergence application, ECHCG (damage score 0-5) ([3]; Rate 250 g/ha): 0; Control of weed species after pre-emergence application, LOLPE (damage score 0-5) (Lolium perenne (LOLPE) [4]; Rate 250 g/ha): 0; Control of weed species after pre-emergence application, SETFA (damage score 0-5) (Setaria faberi (SETFA) [5]; Rate 250 g/ha): 0; Control of weed species after pre-emergence application, TRAZW (damage score 0-5) ([6]; Rate 250 g/ha): 0; Control of weed species after post-emergence application, ALOMY (damage score 0-5) ([7]; Rate 250 g/ha): 0; Control of weed species after post-emergence application, AVEFA (damage score 0-5) (Avena fatua (AVEFA) [8]; Rate 250 g/ha): 1; Control of weed species after post-emergence application, ECHCG (damage score 0-5) ([9]; Rate 250 g/ha): 1; Control of weed species after post-emergence application, LOLPE (damage score 0-5) (Lolium perenne (LOLPE) [10]; Rate 250 g/ha): 1; Control of weed species after post-emergence application, SETFA (damage score 0-5) (Setaria faberi (SETFA) [11]; Rate 250 g/ha): 1; Control of weed species after post-emergence application, TRAZW (damage score 0-5) ([12]; Rate 250 g/ha): 0
CC(C)(C)OC(=O)N(C(=O)OC(C)(C)C)c1ncc(-c2cncc(F)c2)nc1C1=CCCCC1 [Compound H15]	0	0	0	0	0	0	0	1	0	0	2	0	
CC(C)(C)OC(=O)N(C(=O)OC(C)(C)C)c1ncc(-c2cncc(F)c2)nc1OCc1ccccc1 [Compound H8]	0	0	1	1	2	0	0	1	1	0	1	0	
C#Cc1nc(-c2cncc(F)c2)cnc1N(C(=O)OC(C)(C)C)C(=O)OC(C)(C)C [Compound H29]	0	0	0	0	0	0	0	0	1	1	1	1	
CC(C)(C)OC(=O)N(C(=O)OC(C)(C)C)c1ncc(-c2cncc(F)c2)nc1Br [Compound H16]	0	0	1	0	1	0	0	1	1	2	3	0	
